Data published in patent US8394959B2, “Maleate salts of (E)-N-{4-[3-chloro-4-(2-pyridinylmethoxy)anilino]-3-cyano-7-ethoxy-6-quinolinyl)-4-(dimethylamino)-2-buteramide and crystalline forms thereof” (Wyeth LLC, priority 2007, dated 2013).
Values after ≈ are worked out from the molar mass of the structure shown. Read-outs that look alike come from different tables or passages of the source. Values belong to the compound of their own block, whether it stands above or below them.

Tests used:
[1] = Salt form screen: physicochemical properties (solubility, pH, hygroscopicity); conditions: for pH: Table 1, pH of the solution
[2] = Dynamic vapor sorption (DVS) hygroscopicity; format: physicochemical; conditions: DVS isotherm, FIG. 2
Source text: The relative stability and hygroscopicity of the two crystalline forms of the maleate salt was studied in detail by dynamic vapor sorption (DVS).

[3] = Solid state stability in closed and open containers at 40° C. and 75% RH; format: physicochemical; conditions: for time remained stable: closed and open containers at 40° C. and 75% RH
Source text: Both Form I and Form II remained stable for 6 months under these conditions. […] Samples in the closed containers remained dry. HPLC purity analysis indicated no significant increase in degradation products in both open and closed conditions for up to 6 months.

[4] = 20-25° C., relative humidity 50-60%, 24 hours, XRD
Protocol: FIG. 7 illustrates an XRD scan of crystalline (E)-N-{4-[3-chloro-4-(2-pyridinylmethoxy)anilino]-3-cyano-7-ethoxy-6-quinolinyl}-4-(dimethylamino)-2-butenamide maleate in Form II, before and after exposure to relative humidity of 50-60% at an ambient temperature of 20-25° C. for 24 hours.
FIG. 8 is an XRD scan of crystalline (E)-N-{4-[3-chloro-4-(2-pyridinylmethoxy)anilino]-3-cyano-7-ethoxy-6-quinolinyl}-4-(dimethylamino)-2-butenamide maleate in Form I before (lower scan), and after (upper scan) exposure to relative humidity of 50-60% at room temperature of 20-25° C. for 24 hours.

[5] = system: emectic receptors in the stomach; assay: Emectic receptor interaction / diarrhea in mammals; format: in vivo; conditions: in words
[6] = Physicochemical properties of maleate salt pilot batches; conditions: for Aqueous Solubility: footnote: s the free base
[7] = Solubility comparison of free base and maleate salt; conditions: for pH of solution in 2% Tween 80 in water: solvent 2% Tween 80 in water; for pH of solution in Water: solvent water
[8] = Compound pharmacokinetics (systemic exposure) in rats; format: in vivo, rat; design: AUC/Dose: unit not given here; conditions: for AUC(0-t): read-out: AUC0-24
[9] = Stability of crystalline forms of the reslurry at room temperature for 14 days; format: physicochemical; conditions: reslurry in Ethyl acetate
Source text: In one embodiment the re-slurry is allowed to stand for about 14 days.

[10] = Water solubility and BCS classification of the free base; format: physicochemical
Source text: Pat. […] The compound is classified, based on the Biopharmaceutical Classification System, as a BCS Class IV compound (low water solubility and low permeability). […] The water solubility increases with decreasing pH as the compound becomes ionized. This compound is […] rate limiting. There is a need for a form of this compound with improved physicochemical properties.

[11] = physchem; conditions: aqueous with cosolvent or surfactant or cyclodextrin
[12] = pilot batch Run 1, batch size 0.5 g
[13] = pilot batch Run 2, batch size 6.6 g
[14] = pilot batch Run 3, batch size 4 g
[15] = plasma, oral, rat Female, 5 mg/kg, Day 28, mean (SE), N 3
[16] = plasma, oral, rat Male, 5 mg/kg, Day 28, mean (SE), N 3
[17] = plasma, rat Female, 15 mg/kg, Day 28, mean (SE), N 3
[18] = plasma, rat Male, 15 mg/kg, Day 28, mean (SE), N 3
[19] = Closed Vial at 40° C./75% RH, 1 week in storage
[20] = Closed Vial at 40° C./75% RH, 2 weeks in storage
[21] = Closed Vial at 40° C./75% RH, 4 weeks in storage
[22] = Closed Vial at 40° C./75% RH, 12 weeks in storage
[23] = Closed Vial at 40° C./75% RH, 24 weeks in storage
[24] = Closed Vial at 40° C./75% RH, Initial
[25] = Open Vial at 40° C./75% RH, 1 week in storage
[26] = Open Vial at 40° C./75% RH, 2 weeks in storage
[27] = Open Vial at 40° C./75% RH, 4 weeks in storage
[28] = Open Vial at 40° C./75% RH, 12 weeks in storage
[29] = Open Vial at 40° C./75% RH, 24 weeks in storage
[30] = Open Vial at 40° C./75% RH, Initial
[31] = plasma, oral, rat Male, 100 mg/kg, Day 10, mean (SE), N 3
[32] = plasma, rat Female, 30 mg/kg, Day 10, mean (SE), N 3
[33] = plasma, rat Male, 10 mg/kg, Day 10, mean (SE), N 3
[34] = plasma, rat Male, 30 mg/kg, Day 10, mean (SE), N 3

pH ([1]; salt screen): 3.53
Compound: Fumarate

Compound: CCOc1cc2ncc(C#N)c(Nc3ccc(OCc4ccccn4)c(Cl)c3)c2cc1NC(=O)/C=C/CN(C)C.O.O=C(O)/C=C\C(=O)O [Form II]
relative humidity at which water is lost ([2]; especially at 10% RH and below): ≤ 20 % RH
time remained stable [3]: 6 months
form stability on exposure to ambient humidity [4]: relatively stable

Compound: CCOc1cc2ncc(C#N)c(Nc3ccc(OCc4ccccn4)c(Cl)c3)c2cc1NC(=O)/C=C/CN(C)C.O=C(O)/C=C\C(=O)O [Maleate salt]
emectic receptor interaction / diarrhea [5]: minimizes emectic receptor interactions in mammals
solubility [1]: 0.37 mg/g
pH ([1]; salt screen): 5.11
hygroscopicity ([1]; salt screen, in words): less hygroscopic
Solution pH [6, 12]: 5.11
Aqueous Solubility [6, 12]: 0.37 mg/g
Solution pH [6, 13]: 5.10
Aqueous Solubility [6, 13]: 0.50 mg/g
Solution pH [6, 14]: 5.15
Aqueous Solubility [6, 14]: 0.44 mg/g
solubility ([7]; 2% Tween 80 in water, aqueous with cosolvent or surfactant or cyclodextrin): 1.12 mg/mL
pH of solution in 2% Tween 80 in water [7]: (pH 5.06)
pH of solution in Water [7]: (pH 5.00)
solubility ([7]; water, pH 5, water): 0.43 mg/mL
Cmax [8, 15]: 1.38 µg/mL
AUC(0-t) [8, 15]: 9.53 µg·h/mL
AUC(0-t) ([8]; plasma, oral, rat Female, 45 mg/kg, Day 28, mean (SE), N 3): 75.6 µg·h/mL
Cmax [8, 16]: 1.2 µg/mL
AUC(0-t) [8, 16]: 8.22 µg·h/mL
AUC(0-t) ([8]; plasma, oral, rat Male, 45 mg/kg, Day 28, mean (SE), N 3): 65.1 µg·h/mL
Cmax [8, 17]: 3.56 µg/mL
AUC(0-t) [8, 17]: 34.2 µg·h/mL
Cmax ([8]; plasma, rat Female, 45 mg/kg, Day 28, mean (SE), N 3): 4.56 µg/mL
Cmax [8, 18]: 3.42 µg/mL
AUC(0-t) [8, 18]: 30.2 µg·h/mL
Cmax ([8]; plasma, rat Male, 45 mg/kg, Day 28, mean (SE), N 3): 4.62 µg/mL
AUC/Dose ([8]; rat Female, 5 mg/kg, Day 28, mean (SE), N 3): 1907 (169)
AUC/Dose ([8]; rat Female, 15 mg/kg, Day 28, mean (SE), N 3): 2278 (177)
AUC/Dose ([8]; rat Female, 45 mg/kg, Day 28, mean (SE), N 3): 1681 (141)
AUC/Dose ([8]; rat Male, 5 mg/kg, Day 28, mean (SE), N 3): 1645 (126)
AUC/Dose ([8]; rat Male, 15 mg/kg, Day 28, mean (SE), N 3): 2014 (178)
AUC/Dose ([8]; rat Male, 45 mg/kg, Day 28, mean (SE), N 3): 1446 (106)
increase in AUC as compared to the free base ([8]; rat, dose range of 5 to 45 mg/kg): two-fold

Compound: CCOc1cc2ncc(C#N)c(Nc3ccc(OCc4ccccn4)c(Cl)c3)c2cc1NC(=O)/C=C/CN(C)C.O=C(O)/C=C\C(=O)O [Form I]
relative humidity at which moisture is gained ([2]; especially at 60% RH and above): above 40 % relative humidity (RH)
Final Form, wet cake [9]: I + some II
Moisture [3, 19]: 0.39%
Potency (dry basis) [3, 19]: 100.46%
Potency as is [3, 19]: 100.07%
Total impurities [3, 19]: 0.57%
Moisture [3, 20]: 0.34%
Potency (dry basis) [3, 20]: 100.38%
Potency as is [3, 20]: 100.03%
Total impurities [3, 20]: 0.64%
Moisture [3, 21]: 0.22%
Potency (dry basis) [3, 21]: 97.09%
Potency as is [3, 21]: 96.87%
Total impurities [3, 21]: 0.61%
Moisture [3, 22]: 0.46%
Potency (dry basis) [3, 22]: 100.67%
Potency as is [3, 22]: 100.21%
Total impurities [3, 22]: 0.66%
Moisture [3, 23]: 0.16%
Potency (dry basis) [3, 23]: 99.12%
Potency as is [3, 23]: 98.96%
Total impurities [3, 23]: 0.68%
Moisture [3, 24]: 0.35%
Potency (dry basis) [3, 24]: 100.85%
Potency as is [3, 24]: 100.50%
Total impurities [3, 24]: 0.57%
Moisture [3, 25]: 2.82%
Potency (dry basis) [3, 25]: 102.01%
Potency as is [3, 25]: 99.13%
Total impurities [3, 25]: 0.55%
Moisture [3, 26]: 2.86%
Potency (dry basis) [3, 26]: 100.37%
Potency as is [3, 26]: 97.50%
Total impurities [3, 26]: 0.65%
Moisture [3, 27]: 2.74%
Potency (dry basis) [3, 27]: 97.96%
Potency as is [3, 27]: 95.27%
Total impurities [3, 27]: 0.58%
Moisture [3, 28]: 2.98%
Potency (dry basis) [3, 28]: 101.13%
Potency as is [3, 28]: 98.12%
Total impurities [3, 28]: 0.65%
Moisture [3, 29]: 2.79%
Potency (dry basis) [3, 29]: 100.01%
Potency as is [3, 29]: 97.22%
Total impurities [3, 29]: 0.69%
Moisture [3, 30]: 0.35%
Potency (dry basis) [3, 30]: 100.85%
Potency as is [3, 30]: 100.50%
Total impurities [3, 30]: 0.57%
time remained stable [3]: 6 months
water uptake in open containers ([3]; open containers at 40° C. and 75% RH): rapidly absorbed one mole of water to form the monohydrate form

Compound: CCOc1cc2ncc(C#N)c(Nc3ccc(OCc4ccccn4)c(Cl)c3)c2cc1NC(=O)/C=C/CN(C)C [free base]
emectic receptor interaction / diarrhea [5]: giving rise to diarrhea in mammals
pH of solution in 2% Tween 80 in water [7]: (pH 6.4)
pH of solution in Water [7]: (pH 8.2)
Cmax [8, 31]: 3.82 µg/mL
AUC(0-t) [8, 31]: 58.3 µg·h/mL
Cmax [8, 32]: 2.44 µg/mL
AUC(0-t) [8, 32]: 25 µg·h/mL
Cmax [8, 33]: 0.814 µg/mL
AUC(0-t) [8, 33]: 6.79 µg·h/mL
Cmax ([8]; plasma, rat Male, 20 mg/kg, Day 1, mean (SE), N 4): 1.01 µg/mL
AUC(0-inf) ([8]; plasma, rat Male, 20 mg/kg, Day 1, mean (SE), N 4, footnote a: AUC0-∞): 8.51 µg·h/mL
Cmax [8, 34]: 1.65 µg/mL
AUC(0-t) [8, 34]: 20.4 µg·h/mL
systemic availability ([8]; rat): 20%
AUC/Dose ([8]; rat Female, 30 mg/kg, Day 10, mean (SE), N 3): 832 (145)
AUC/Dose ([8]; rat Male, 10 mg/kg, Day 10, mean (SE), N 3): 678 (64)
AUC/Dose ([8]; rat Male, 20 mg/kg, Day 1, mean (SE), N 4): 426 (81)
AUC/Dose ([8]; rat Male, 30 mg/kg, Day 10, mean (SE), N 3): 680 (78)
AUC/Dose ([8]; rat Male, 100 mg/kg, Day 10, mean (SE), N 3): 583 (125)
Biopharmaceutical Classification System class ([10]; low water solubility and low permeability): BCS Class IV
solubility ([10]; water, at about pH 7): ~0.001 mg/mL (≈ 1.8 µM)
solubility [11]: 0.05 mg/mL (≈ 89.8 µM)

Compound: Tosylate
pH ([1]; salt screen): 4.72
solubility ([1]; salt screen, Table 1, water): 6.89 mg/g
